The source of these data is patent US12590099B2, “Inhibitors of histone deacetylase useful for the treatment or prevention of HIV infection” (Merck Sharp & Dohme LLC, priority 2018, dated 2026).

The structures appear in SMILES notation. pIC50: −log10 of the molar value. Like-named read-outs stand apart in the source and are kept apart here.

Assay [1] deals with KARN cells (Jurkat 2C4). The experiment in a line: cells. The format is cell-based. As to the method:
KARN cells (Jurkat 2C4) were licensed from the laboratory of Dr. John Karn, Case Western Reserve University, School of Medicine. […] An atmosphere of 5% CO2 and 90% humidity was used for all culture work.
Day 1: After the 3-4 day growth period, the cells were transferred from the T175 flask to a 50 ml conical tube and gently pelleted at 1000 rpm for 5 minutes. […] These flasks were returned to the incubator.
Day 2: Cell Preparation: The next day, the cells were transferred from each T175 flask to an individual 50 ml conical tube and gently pelleted at 1000 rpm for 5 minutes. The cells were gently resuspended in assay media (30 ml) and pelleted again. […] The cells were counted using the ViCell (Beckman Coulter) and diluted as necessary. […] The plates were covered and returned to the incubator prior to compound addition.
The reference compounds, DMSO and SAHA were then added to the compound plate. […] The final high concentration for SAHA and the test compounds in the assays was 40 μM. The final DMSO concentration in all wells was 0.4%. The minimal induction reference compound used was DMSO and the maximal induction reference compound used was SAHA (2 μM final concentration in the assay).
Day 3: The luciferase detection reagent was prepared by transferring the contents of one bottle of Steady-Glo buffer to one bottle of Steady-Glo aubstrate (Steady-Glo Luciferase Assay System, Promega, catalog number E2520), followed by gently mixing until the substrate was thoroughly dissolved and the solution was equilibrated to room temperature. […] The Steady-Glo Reagent was added to the plates (30 μl/well), which were then covered with a black lid and incubated for 10 minutes at room temperature. The plates were then read for luminescence on an Envision (Perkin Elmer) using the ultrasensitive mode (US LUM), […] and 384-well aperture. Luminescence counts in the DMSO reference wells were considered as 0% induction, while those in the 2 μM SAHA reference wells were considered as 100% induction. Dose response curves were plotted as test compound concentration (X-axis) vs. percent activation (Y-axis) using a 4-parameter fit based on the Levenberg-Marquardt algorithm.

Assay [2] deals with T1, Recombinant human HDAC8 (Homo sapiens, UniProt Q9BY41).
T1 construct: purchased Enzo Life Sciences BML-SE145-0100
T1 sequence (Q9BY41 1-377): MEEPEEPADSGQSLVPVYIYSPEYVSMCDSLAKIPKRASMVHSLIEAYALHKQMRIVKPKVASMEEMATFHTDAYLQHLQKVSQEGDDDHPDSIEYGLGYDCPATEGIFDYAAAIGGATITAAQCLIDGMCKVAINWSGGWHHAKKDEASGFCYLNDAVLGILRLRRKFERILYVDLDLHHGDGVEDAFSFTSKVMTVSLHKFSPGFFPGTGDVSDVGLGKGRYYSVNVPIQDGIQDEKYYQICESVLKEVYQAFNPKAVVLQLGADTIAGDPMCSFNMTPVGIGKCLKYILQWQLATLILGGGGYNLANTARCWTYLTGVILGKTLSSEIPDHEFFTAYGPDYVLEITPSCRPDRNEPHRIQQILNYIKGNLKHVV
The experiment in a line: Human HDAC enzyme inhibitor Fluor-de-Lys assay, HDAC8. Format: biochemical. As to the method:
(§1) Human HDAC Enzyme Inhibitor Fluor-De-Lys Assay
(§2) Recombinant human HDAC8 (BML-SE145-0100) and HDAC10 (BML-SE559-0050) enzymes, HDAC substrates BML-KI104 and BML-KI178, and HDAC developer solutions BML-KI105 and BML-KI176 were purchased from Enzo Life Sciences. […] HDAC inhibitor suberoylanilide hydroxamic acid (SAHA) was obtained from Indofine and trichostatin A (TSA) was obtained from Sigma-Aldrich.
(§3) The histone deacetylase activities of HDAC1, HDAC2, HDAC3, HDAC6, and HDAC8 were measured in modified FLUOR DE LYS assays in 384-well format. In this assay, HDAC enzymes are initially incubated with an ε-acetyl (or -trifluoroacetyl)-L-lysine-containing substrate with a C-terminal amide having aminomethylcoumarin as the amine component. HDACs cleave the ε-acetyl group, rendering the resulting product susceptible to AMC cleavage by trypsin. The released AMC is then detected by its fluorescence.
(§4) The HDAC3/SMRT assay employed buffer B, consisting of 20 mM HEPES, pH 8.0, 1 mM MgCl2, 50 mM NaCl, 2.7 mM KCl, 0.05% BSA, 0.005% Tween 20, and 10 μM IP4. […] The HDAC8 assay employed buffer D, consisting of 20 mM HEPES, pH 8.0, 1 mM MgCl2, 100 mM NaCl, 20 mM KCl, 0.10% n-octyl-β-D-glucoside (Anatrace) and 0.05% BSA. All steps were performed at room temperature (23° C.). The assay was performed by pre-incubating serial dilutions of test compounds with the target HDAC prior to initiation with substrate. Each compound was titrated in a 10-point dose response, using a 1:3 fold dilution scheme, with 0.15 ul of solution added by ECH0555 to the plate, followed by the addition of 20 μl of the appropriate HDAC isoform diluted in appropriate assay buffer. […] Final conditions used for each assay were: 1. HDAC 1, 0.3 nM total enzyme, 20 μM substrate BML-KI104; 2. […] HDAC 3/SMRT, 0.3 nM total enzyme, 20 μM substrate BML-KI104; 4. […] The reactions were stopped and developed by addition of 30 ul of HDAC developer solution containing a saturating level of HDAC inhibitor as follows: 1.

Assay [3] has as its target T2, HDAC6 (Homo sapiens, UniProt Q9UBN7).
T2 sequence (Q9UBN7 1-1215): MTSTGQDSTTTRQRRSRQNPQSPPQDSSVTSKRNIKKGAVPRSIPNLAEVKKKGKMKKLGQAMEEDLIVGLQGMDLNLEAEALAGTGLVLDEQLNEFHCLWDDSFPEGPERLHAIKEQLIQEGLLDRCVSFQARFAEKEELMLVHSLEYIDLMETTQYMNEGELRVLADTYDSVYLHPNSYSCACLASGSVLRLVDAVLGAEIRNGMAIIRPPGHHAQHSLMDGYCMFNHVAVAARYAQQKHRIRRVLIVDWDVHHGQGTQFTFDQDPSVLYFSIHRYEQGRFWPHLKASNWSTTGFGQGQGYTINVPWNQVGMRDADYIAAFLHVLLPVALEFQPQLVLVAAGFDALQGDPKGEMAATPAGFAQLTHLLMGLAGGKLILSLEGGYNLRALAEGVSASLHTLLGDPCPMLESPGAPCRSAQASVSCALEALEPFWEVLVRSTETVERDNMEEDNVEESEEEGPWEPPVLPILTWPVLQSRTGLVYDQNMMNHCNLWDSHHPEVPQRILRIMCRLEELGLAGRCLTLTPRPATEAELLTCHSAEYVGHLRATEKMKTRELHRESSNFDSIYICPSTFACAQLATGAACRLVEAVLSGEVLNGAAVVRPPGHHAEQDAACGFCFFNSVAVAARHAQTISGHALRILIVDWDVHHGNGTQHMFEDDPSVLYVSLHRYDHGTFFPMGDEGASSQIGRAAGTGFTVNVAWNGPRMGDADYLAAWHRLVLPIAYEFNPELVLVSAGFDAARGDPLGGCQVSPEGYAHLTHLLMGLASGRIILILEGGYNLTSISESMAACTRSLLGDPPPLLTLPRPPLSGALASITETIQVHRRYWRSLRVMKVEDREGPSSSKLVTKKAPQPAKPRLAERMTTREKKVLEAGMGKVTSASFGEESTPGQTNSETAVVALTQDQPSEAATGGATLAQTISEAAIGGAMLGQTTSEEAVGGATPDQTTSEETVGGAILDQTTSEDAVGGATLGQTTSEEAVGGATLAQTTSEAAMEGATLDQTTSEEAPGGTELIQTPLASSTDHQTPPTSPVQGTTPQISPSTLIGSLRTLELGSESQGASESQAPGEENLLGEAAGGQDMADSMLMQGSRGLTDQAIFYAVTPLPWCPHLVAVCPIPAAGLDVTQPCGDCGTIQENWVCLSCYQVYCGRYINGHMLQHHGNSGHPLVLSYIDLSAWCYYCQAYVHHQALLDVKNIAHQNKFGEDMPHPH
The experiment in a line: Human HDAC enzyme inhibitor Fluor-de-Lys assay, HDAC6. The format is biochemical. As to the method: as §1, §2, §3, §4

[4] abbreviates: Homo sapiens, Jurkat, read-out: Karn EC50 (nM) 0.1% NHS, 0.1% normal human serum, luciferase induction, 100% = 2 μM SAHA.
The mark [5] stands for this setting: Homo sapiens, Jurkat, read-out: Karn EC50 (nM) 5% NHS, 5% normal human serum, luciferase induction, 100% = 2 μM SAHA.
Setting [6] is: recombinant human HDAC8, Fluor-de-Lys assay.
Where [7] appears, read: Homo sapiens, Jurkat, read-out: Karn EC50 (nM) 0.1% NHS, 0.1% normal human serum.
The mark [8] stands for this setting: Homo sapiens, Jurkat, read-out: Karn EC50 (nM) 5% NHS, 5% normal human serum.

Turning to `CCC(=O)CCCCC[C@H](NC(=O)C1CCC2(CC1)CN(C)C2)c1ncc(-c2cc3ccccc3nc2OC)[nH]1` [Compound 315], the EC50 in assay [1] (setting [4]) stood at 86 nM; in assay [1] (setting [5]) it was 688 nM. Moreover, the pIC50 in assay [2] (setting [6]) is 5.71; in assay [3] (HDAC6, Fluor-de-Lys assay), 6.34.

In the case of `CCC(=O)CCCCC[C@H](NC(=O)C1CC12CCC(N(C)C)CC2)c1ncc(-c2cc3ccccc3nc2OC)[nH]1` (single isomer, unassigned) [Compound 128], the EC50 in assay [1] (read-out: Karn EC50 (nM) 0.1% NHS, 0.1% normal human serum) came to 442 nM; in assay [1] (read-out: Karn EC50 (nM) 5% NHS, 5% normal human serum), 1140 nM. In addition, the pIC50 was 5.25 in assay [2] and 6.12 in assay [3].

With `CCC(=O)CCCCC[C@H](NC(=O)[C@H]1CC12CCN(CC)CC2)c1ncc(-c2cc3ccccc3nc2O)[nH]1` [Compound 291], the results for the EC50 in assay [1] (setting [4]) and in assay [1] (setting [5]) were 192 nM and 295 nM, respectively. In addition, the pIC50 is less than 4.82 in assay [2] (setting [6]) and 6.13 in assay [3] (HDAC6, Fluor-de-Lys assay).

`CCC(=O)CCCCC[C@H](NC(=O)[C@H]1CC12CCN(Cc1ccccc1)CC2)c1ncc(-c2cc3ccccc3nc2OC)[nH]1` [Compound 293]: the EC50 turned out to be 75 nM in assay [1] (setting [4]) and 175 nM in assay [1] (setting [5]). The pIC50 in assay [2] (setting [6]) was 5.09; in assay [3] (HDAC6, Fluor-de-Lys assay), 6.14.

Take `CCC(=O)CCCCC[C@H](NC(=O)[C@@H]1C[C@]12CCN(C)C2)c1ncc(-c2cc3ccccc3nc2OC)[nH]1` [Compound 329]: the EC50 was determined as 262 nM in assay [1] (setting [4]) and 1140 nM in assay [1] (setting [5]). For the same compound, the pIC50 is 5.15 in assay [2] (setting [6]) and less than 6.82 in assay [3] (HDAC6, Fluor-de-Lys assay).

As to `CCC(=O)CCCCC[C@H](NC(=O)[C@H]1CC12CCN(C(C)C)CC2)c1ncc(-c2cc3ccccc3nc2OC)[nH]1` [Compound 337], the EC50 was 32 nM in assay [1] (setting [4]) and 57 nM in assay [1] (setting [5]). The pIC50 in assay [2] (setting [6]) was 5.25; in assay [3] (HDAC6, Fluor-de-Lys assay), 6.80.

With `CCC(=O)CCCCC[C@H](NC(=O)[C@H]1CC12CN(C)C2)c1ncc(-c2cc3ccccc3nc2OC)[nH]1` [Compound 323], the EC50 in assay [1] (setting [4]) is 284 nM; in assay [1] (setting [5]), 1290 nM. Besides, the pIC50 in assay [2] (setting [6]) is 5.64; in assay [3] (HDAC6, Fluor-de-Lys assay) it was 6.42.

Consider `CCC(=O)CCCCC[C@H](NC(=O)[C@H]1CC12CCN(C)CC2)c1ncc(-c2cc3ccc(-c4ncco4)cc3nc2OC)[nH]1` [Compound 175, (1S)—N-[(1S)-1-{5-[2-methoxy-7-(1,3-oxazol-2-yl)quinolin-3-yl]-1H-imidazol-2-yl}-7-oxononyl]-6-methyl-6-azaspiro[2.5]octane-1-carboxamide], for which the EC50 in assay [1] (setting [7]) amounted to 48 nM; in assay [1] (setting [8]), 84 nM. Also, the pIC50 in assay [2] and in assay [3] was less than 6.82 each time.

For `CCC(=O)CCCCC[C@H](NC(=O)[C@H]1CC12CCN(C)CC2)c1ncc(-c2cccnc2OC)[nH]1` [Compound 102], the EC50 in assay [1] (setting [7]) was found to be 290 nM; in assay [1] (setting [8]) it was 301 nM. The pIC50 is 5.49 in assay [2] and 5.71 in assay [3].

Take `CCC(=O)CCCCC[C@H](NC(=O)[C@H]1CC12CCN(C)CC2)c1ncc(-c2cc3ccccc3nc2OC)[nH]1` (single isomer, unassigned) [Compound 321]: the figures for the EC50 in assay [1] (setting [4]) and in assay [1] (setting [5]) were 27 nM and 83 nM, respectively. Further, the pIC50 is 5.47 in assay [2] (setting [6]) and 6.80 in assay [3] (HDAC6, Fluor-de-Lys assay).

Turning to `CCCN1CCC2(CC1)C[C@@H]2C(=O)N[C@@H](CCCCCC(=O)CC)c1ncc(-c2cc3ccccc3nc2OC)[nH]1` [Compound 331], the EC50 is 154 nM in assay [1] (setting [4]) and 896 nM in assay [1] (setting [5]). Further, the pIC50 is 5.69 in assay [2] (setting [6]) and 6.31 in assay [3] (HDAC6, Fluor-de-Lys assay).

Consider `CCC(=O)CCCCC[C@H](NC(=O)[C@H]1CC12CCN(C)CC2)c1ncc(-c2cc3ncccc3nc2OC)[nH]1` [Compound 142], for which the EC50 in assay [1] (setting [7]) is 311 nM; in assay [1] (setting [8]), 544 nM. For the same compound, the pIC50 was 5.29 in assay [2] and 5.44 in assay [3].

As for `CCC(=O)CCCCC[C@H](NC(=O)C1CC2(CCN(CC)CC2)C1)c1ncc(-c2cc3ccccc3nc2OC)[nH]1` [Compound 278], the EC50 is 166 nM in assay [1] (setting [4]) and 1000 nM in assay [1] (setting [5]). Besides, the pIC50 in assay [2] (setting [6]) is 6.01; in assay [3] (HDAC6, Fluor-de-Lys assay) it was 6.32.
